Data taken from patent US9034874B2, “Carbamate/urea derivatives” (NOVARTIS AG, priority 2012, dated 2015).

Key:
human H3 receptors = human H3 receptors (Homo sapiens (Human), UniProt Q9Y5N1); experiment: Potency assessment: blockade of (R)-alpha-methylhistamine-mediated cAMP production (LANCE Ultra cAMP kit); type: cell-based; conditions: CHO cells expressing human H3 receptors
Protocol: The potency of compounds of the invention as H3 receptor antagonists can be assessed by measuring the blockade of (R)-alpha-methylhistamine-mediated cAMP production utilizing a LANCE Ultra cAMP kit (PE #TRF0263) in CHO cells expressing human H3 receptors (GenBank: BC096840; Strausberg R L et al, Proc. Natl. Acad. Sci. U.S.A. 99(26), 16899-16903; 2002).
2. Preparation of assay plate: Different concentrations of the compounds of the invention (0.01-1000 nM), H3 positive controls and cAMP calibration standards; […] Forskolin (CALBIOCHEM #344270); 5 μM (R)-alpha-methylhistamine (H3 receptor agonist); 1% DMSO (SIGMA #D2650); total volume: 95 nl.
3. Preparation of the cell solution: Collect cells with stimulation buffer, final density: 100,000 cells/ml.
4. Reaction: (a) transfer 10 μl of cell solution to assay plate, (b) centrifuge at 600 rpm for 3 min and incubate 50 min at room temperature, (c) add 5 μL 4× Eu-cAMP tracer solution (60 μl Eu-cAMP tracer stock solution+2.94 ml cAMP detection buffer) and 5 μL 4× ULight™-anti-cAMP solution (20 μl […]+2.98 ml cAMP detection buffer) to assay plate.
5. Reading plate on EnVision: flash energy: 100%; excitation filter: 111 UV2 320; emission filter: 203 (Eu 615) and 205 (APC 665); number of laser flashes: 20; window: 100 μs; laser mirror module: 445 or 446; laser cycle: 16,600 μs.
6. Data analysis by GraphPad Prism: log (compound concentration) vs. response; variable slope.

wakefulness in rats = experiment: Effects on wakefulness (EEG/EMG recordings); type: in vivo, rat; conditions: oral, first 4 hours after administration
Protocol: Animals: Male Sprague-Dawly rats (280-320 g) were housed individually under an ambient temperature of 22±0.5° C. with a relative humidity of 60±2% and an automatically controlled 12-h light/12-h dark cycle (light on at 07:00, illumination intensity 100 lux). The animals had free access to food and water.
EEG recording set up, Polygraphic Recordings and Vigilance State Analysis: Under pentobarbital anesthesia (50 mg/kg, i.p.), rats were chronically implanted with EEG and electromyogram (EMG) electrodes for polysomnographic recordings (Huang et al, J Neurosci, 23, 5975-5983, 2003). Two stainless steel screws (1 mm in diameter) EEG electrodes (the first screw: anteroposterior (AP), +2 mm; left-right (LR), −2 mm; and the second: AP, −2 mm; LR, −2 mm, AP from bregma, LR from lambda) and a reference electrode (opposite to EEG screw side, AP, +3 mm; LR, 3 mm) were surgically implanted and 3 stainless steel screws for anchorage to the skull. Two insulated stainless steel, Teflon-coated wires were bilaterally placed into both trapezius muscles and served as EMG electrodes for rats. All electrodes were attached to a micro connector and fixed to the skull with dental cement. […]
For the study of spontaneous sleep-wakefulness cycles, each animal was recorded for 24 h beginning at 19:00 P.M., the offset of the light period. The animals then entered the pharmacological phase of the study, in which sleep-wakefulness parameters were recorded for 72 h. […]
Cortical EEG and EMG signals were amplified, filtered (EEG, 0.5-30 Hz; EMG, 20-200 Hz), digitized at a sampling rate of 128 Hz, and recorded by using SLEEPSIGN (Kissei Comtec, Nagano, Japan). When complete, polygraphic recordings were automatically scored offline by 4-sec epochs as wake, REM, and NREM sleep by SleepSign according to standard criteria (Huang et al, Nat Neurosci, 8, 858-859, 2005). […]
Time-course changes in the amounts of sleep-wake, sleep/wake stage transition number, as well as number and duration of sleep/wake bouts in light/dark phases, were analyzed by the paired t test, with each animal serving as its own control. […]

human H3 receptors, sequence (Q9Y5N1 whole entry): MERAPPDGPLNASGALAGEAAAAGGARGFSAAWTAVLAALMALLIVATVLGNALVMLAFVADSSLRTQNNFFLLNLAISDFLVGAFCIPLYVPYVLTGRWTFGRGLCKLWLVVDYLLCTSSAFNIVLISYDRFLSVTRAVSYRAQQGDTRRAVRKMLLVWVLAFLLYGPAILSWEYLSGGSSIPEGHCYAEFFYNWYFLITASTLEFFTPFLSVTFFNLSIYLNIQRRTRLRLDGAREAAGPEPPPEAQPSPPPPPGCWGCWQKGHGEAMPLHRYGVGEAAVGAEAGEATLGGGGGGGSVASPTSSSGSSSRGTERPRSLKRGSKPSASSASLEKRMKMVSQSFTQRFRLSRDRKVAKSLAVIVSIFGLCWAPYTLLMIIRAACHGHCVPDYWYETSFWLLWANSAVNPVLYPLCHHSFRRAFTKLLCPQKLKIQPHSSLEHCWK

Ki (human H3 receptors) [nM]	Structure (SMILES)	% increase in wakefulness at 10 mg (wakefulness in rats) [%]
1.3	O=C(OC1CCN(c2ccc(=O)[nH]n2)CC1)N1CCN(C2CCC2)CC1 [Example 1.1, 1-(6-oxo-1,6-dihydropyridazin-3-yl)piperidin-4-yl 4-cyclobutylpiperazine-1-carboxylate]	42.1
2.4	CC(C)N1CCN(C(=O)OC2CCN(c3ccc(=O)n(C)n3)CC2)CC1 [Example 1.2, 1-(1-methyl-6-oxo-1,6-dihydropyridazin-3-yl)piperidin-4-yl 4-isopropylpiperazine-1-carboxylate]	48.8
1.2	CC(C)N1CCN(C(=O)OC2CCN(c3ccc(=O)[nH]n3)CC2)CC1 [Example 1.3, 1-(6-oxo-1,6-dihydropyridazin-3-yl)piperidin-4-yl 4-isopropylpiperazine-1-carboxylate]	19.1
